Assay results published in ChEMBL document CHEMBL5678816, “A Next-Generation TRK Kinase Inhibitor Overcomes Acquired Resistance to Prior TRK Kinase Inhibition in Patients with TRK Fusion-Positive Solid Tumors” (Cancer Discov, 2017).
The source made the active and inactive calls. No cut-off for these calls is given here.

Experiments:
[1] = biological target: Serine/threonine-protein kinase haspin (Homo sapiens) (UniProt Q8TF76); assay: Inhibition of Haspin (unknown origin) at 1 uM in presence of ATP relative to control; values are per cent of control
[2] = biological target: Proto-oncogene tyrosine-protein kinase ROS (Homo sapiens) (UniProt P08922); assay: Inhibition of Ros (unknown origin) at 1 uM in presence of ATP relative to control
[3] = biological target: Death-associated protein kinase 1 (Homo sapiens) (UniProt P53355); assay: Inhibition of DAPK1 (unknown origin) at 1 uM in presence of ATP relative to control; values are per cent of control
NIH3T3 [4] = assay: In vivo inhibition of […] in nu/nu NCr mouse implanted with mouse NIH3T3 cells harboring extracellular domain deleted […] assessed as reduction in […] phosphorylation at 60 mg/kg, po administered once daily for 3 days and measured after 2 hrs post last dose by ELISA; assay type: functional, organism-based; conditions: time 3.0 day
[5] = biological target: Serine/threonine-protein kinase BRSK1 (Homo sapiens) (UniProt Q8TDC3); assay: Inhibition of BrSK1 (unknown origin) at 1 uM in presence of ATP relative to control; values are per cent of control
[6] = AUC in adult patient with recurrent LMNA-NTRK1 rearranged colorectal cancer at 100 mg administered twice a day as powder-in-capsule or liquid formulation for 22 day by LC-MS/MS analysis; assay type: ADME; conditions: human, in vivo, po
LC2 = assay: Inhibition of cell proliferation in human LC2 cells upto 10 umol/L incubated for 72 hrs by DAPI staining based analysis; assay type: functional; conditions: dose <= 10.0 µmol/L
SW1353 = assay: Inhibition of cell proliferation in human SW1353 cells upto 10 umol/L incubated for 72 hrs by DAPI staining based analysis; assay type: functional; conditions: dose <= 10.0 µmol/L
[7] = biological target: Tyrosine-protein kinase Fer (Homo sapiens) (UniProt P16591); assay: Inhibition of Fer (unknown origin) at 1 uM in presence of ATP relative to control; values are per cent of control
MDA-MB-231 = assay: Inhibition of cell proliferation in human MDA-MB-231 cells upto 10 umol/L incubated for 72 hrs by DAPI staining based analysis; assay type: functional; conditions: dose <= 10.0 µmol/L
[8] = biological target: Calcium/calmodulin-dependent protein kinase type II subunit gamma (Homo sapiens) (UniProt Q13555); assay: Inhibition of CAMK2g (unknown origin) at 1 uM in presence of ATP relative to control; values are per cent of control
[9] = system: KATO III stomach cancer cell line; assay: Inhibition of cell proliferation in human KATO III stomach cancer cell line upto 10 umol/L incubated for 72 hrs by DAPI staining based analysis; assay type: functional; conditions: dose <= 10.0 µmol/L
D283 Med = assay: Inhibition of cell proliferation in human D283 Med cells upto 10 umol/L incubated for 72 hrs by DAPI staining based analysis; assay type: functional; conditions: dose <= 10.0 µmol/L
[10] = biological target: CDK7/Cyclin H/MNAT1 (Homo sapiens) (UniProt P51946+P50613+P51948); assay: Inhibition of CDK7/cyclinH/MAT1 (unknown origin) at 1 uM in presence of ATP relative to control; values are per cent of control
[11] = Cmax in pediatric patient with recurrent ETV6-NTRK3-rearranged infantile fibrosarcoma at 100 mg administered twice a day as liquid formulation for 29 day by LC-MS/MS analysis; assay type: ADME; conditions: human, in vivo
HMCB cell line = assay: Inhibition of cell proliferation in human HMCB cells upto 10 umol/L incubated for 72 hrs by DAPI staining based analysis; assay type: functional; conditions: dose <= 10.0 µmol/L
T-24 = assay: Inhibition of cell proliferation in human T24 cells upto 10 umol/L incubated for 72 hrs by DAPI staining based analysis; assay type: functional; conditions: dose <= 10.0 µmol/L
MIA PaCa-2 = assay: Inhibition of cell proliferation in human MIA PaCa-2 cells upto 10 umol/L incubated for 72 hrs by DAPI staining based analysis; assay type: functional; conditions: dose <= 10.0 µmol/L
SNU-16 = assay: Inhibition of cell proliferation in human SNU-16 cells upto 10 umol/L incubated for 72 hrs by DAPI staining based analysis; assay type: functional; conditions: dose <= 10.0 µmol/L
[12] = biological target: Rho-associated protein kinase 1 (Homo sapiens) (UniProt Q13464); assay: Inhibition of ROCK-I (unknown origin) at 1 uM in presence of ATP relative to control; values are per cent of control
J82 = assay: Inhibition of cell proliferation in human J82 cells upto 10 umol/L incubated for 72 hrs by DAPI staining based analysis; assay type: functional; conditions: dose <= 10.0 µmol/L
[13] = biological target: Eukaryotic elongation factor 2 kinase (Homo sapiens) (UniProt O00418); assay: Inhibition of eEF-2K (unknown origin) at 1 uM in presence of ATP relative to control; values are per cent of control
[14] = Inhibition of cell proliferation in MPRIP-NTRK1 fusion positive human CUTO-3 cells incubated for 72 hrs by DAPI staining based analysis; assay type: functional; conditions: CUTO-3, 72 h
[15] = biological target: Ribosomal protein S6 kinase alpha-5 (Homo sapiens) (UniProt O75582); assay: Inhibition of MSK1 (unknown origin) at 1 uM in presence of ATP relative to control; values are per cent of control
Homo sapiens [16] = organism: Homo sapiens; assay: Inhibition of CDK2/cyclinA (unknown origin) at 1 uM in presence of ATP relative to control; values are per cent of control
[17] = biological target: Fibroblast growth factor receptor 4 (Homo sapiens) (UniProt P22455); assay: Inhibition of FGFR4 (unknown origin) at 1 uM in presence of ATP relative to control; values are per cent of control
Homo sapiens [18] = organism: Homo sapiens; assay: Inhibition of p70S6K (unknown origin) at 1 uM in presence of ATP relative to control; values are per cent of control
NIH3T3 [19] = assay type: functional, organism-based; conditions: Mus musculus, dose 30-300 mg/kg, route po, time 9.0 day
[20] = biological target: Serine/threonine-protein kinase SIK1 (Homo sapiens) (UniProt P57059); assay: Inhibition of SIK (unknown origin) at 1 uM in presence of ATP relative to control; values are per cent of control
[21] = biological target: Dual specificity mitogen-activated protein kinase kinase 6 (Homo sapiens) (UniProt P52564); assay: Inhibition of MKK6 (unknown origin) at 1 uM in presence of ATP relative to control; values are per cent of control
[22] = biological target: Serine/threonine-protein kinase Chk1 (Homo sapiens) (UniProt O14757); assay: Inhibition of CHK1 (unknown origin) at 1 uM in presence of ATP relative to control; values are per cent of control
SK-N-DZ = assay: Inhibition of cell proliferation in human SK-N-DZ cells upto 10 umol/L incubated for 72 hrs by DAPI staining based analysis; assay type: functional; conditions: dose <= 10.0 µmol/L

Sequence of Fibroblast growth factor receptor 4 (Homo sapiens) (P22455 22-802 limits assumed): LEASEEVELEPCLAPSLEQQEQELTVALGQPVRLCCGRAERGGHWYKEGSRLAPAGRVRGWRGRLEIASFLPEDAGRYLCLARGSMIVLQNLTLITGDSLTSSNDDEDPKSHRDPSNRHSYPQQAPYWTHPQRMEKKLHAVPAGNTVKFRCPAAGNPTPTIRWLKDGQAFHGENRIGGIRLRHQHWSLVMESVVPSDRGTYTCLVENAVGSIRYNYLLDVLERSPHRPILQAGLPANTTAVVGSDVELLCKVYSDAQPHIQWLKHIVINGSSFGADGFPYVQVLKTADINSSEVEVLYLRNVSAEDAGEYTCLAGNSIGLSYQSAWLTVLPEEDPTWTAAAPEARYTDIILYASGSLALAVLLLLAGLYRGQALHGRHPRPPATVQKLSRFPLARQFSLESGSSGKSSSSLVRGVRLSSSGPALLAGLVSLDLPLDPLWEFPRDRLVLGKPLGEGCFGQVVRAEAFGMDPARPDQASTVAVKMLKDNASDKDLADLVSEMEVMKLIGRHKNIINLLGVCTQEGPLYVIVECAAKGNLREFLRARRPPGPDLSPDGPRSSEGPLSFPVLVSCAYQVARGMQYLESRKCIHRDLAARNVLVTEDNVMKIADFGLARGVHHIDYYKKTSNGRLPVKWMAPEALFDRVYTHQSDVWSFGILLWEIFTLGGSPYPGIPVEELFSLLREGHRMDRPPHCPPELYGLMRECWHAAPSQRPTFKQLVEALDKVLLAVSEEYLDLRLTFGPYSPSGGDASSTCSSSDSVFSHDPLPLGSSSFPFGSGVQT
Sequence of Serine/threonine-protein kinase SIK1 (Homo sapiens) (P57059 whole entry): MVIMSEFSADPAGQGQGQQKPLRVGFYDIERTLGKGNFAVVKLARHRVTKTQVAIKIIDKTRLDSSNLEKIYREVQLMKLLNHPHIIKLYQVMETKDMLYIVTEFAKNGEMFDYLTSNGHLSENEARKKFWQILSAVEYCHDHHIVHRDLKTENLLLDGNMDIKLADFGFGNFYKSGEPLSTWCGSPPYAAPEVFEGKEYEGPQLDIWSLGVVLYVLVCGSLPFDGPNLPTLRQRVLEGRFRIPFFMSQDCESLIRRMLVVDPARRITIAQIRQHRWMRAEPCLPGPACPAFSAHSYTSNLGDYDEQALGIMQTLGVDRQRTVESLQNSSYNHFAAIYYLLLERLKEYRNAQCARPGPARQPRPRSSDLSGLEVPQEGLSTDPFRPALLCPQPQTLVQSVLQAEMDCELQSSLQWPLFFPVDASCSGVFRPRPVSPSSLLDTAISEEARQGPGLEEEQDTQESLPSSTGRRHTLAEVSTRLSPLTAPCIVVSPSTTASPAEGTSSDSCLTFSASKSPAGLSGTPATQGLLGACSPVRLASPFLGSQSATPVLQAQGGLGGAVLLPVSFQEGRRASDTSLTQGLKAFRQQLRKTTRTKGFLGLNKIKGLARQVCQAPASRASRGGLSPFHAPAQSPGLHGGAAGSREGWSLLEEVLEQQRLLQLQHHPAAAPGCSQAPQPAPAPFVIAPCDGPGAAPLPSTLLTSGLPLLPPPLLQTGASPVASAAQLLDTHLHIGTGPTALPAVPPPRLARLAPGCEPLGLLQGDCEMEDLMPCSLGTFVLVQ
Sequence of Tyrosine-protein kinase Fer (Homo sapiens) (P16591 whole entry, looked up): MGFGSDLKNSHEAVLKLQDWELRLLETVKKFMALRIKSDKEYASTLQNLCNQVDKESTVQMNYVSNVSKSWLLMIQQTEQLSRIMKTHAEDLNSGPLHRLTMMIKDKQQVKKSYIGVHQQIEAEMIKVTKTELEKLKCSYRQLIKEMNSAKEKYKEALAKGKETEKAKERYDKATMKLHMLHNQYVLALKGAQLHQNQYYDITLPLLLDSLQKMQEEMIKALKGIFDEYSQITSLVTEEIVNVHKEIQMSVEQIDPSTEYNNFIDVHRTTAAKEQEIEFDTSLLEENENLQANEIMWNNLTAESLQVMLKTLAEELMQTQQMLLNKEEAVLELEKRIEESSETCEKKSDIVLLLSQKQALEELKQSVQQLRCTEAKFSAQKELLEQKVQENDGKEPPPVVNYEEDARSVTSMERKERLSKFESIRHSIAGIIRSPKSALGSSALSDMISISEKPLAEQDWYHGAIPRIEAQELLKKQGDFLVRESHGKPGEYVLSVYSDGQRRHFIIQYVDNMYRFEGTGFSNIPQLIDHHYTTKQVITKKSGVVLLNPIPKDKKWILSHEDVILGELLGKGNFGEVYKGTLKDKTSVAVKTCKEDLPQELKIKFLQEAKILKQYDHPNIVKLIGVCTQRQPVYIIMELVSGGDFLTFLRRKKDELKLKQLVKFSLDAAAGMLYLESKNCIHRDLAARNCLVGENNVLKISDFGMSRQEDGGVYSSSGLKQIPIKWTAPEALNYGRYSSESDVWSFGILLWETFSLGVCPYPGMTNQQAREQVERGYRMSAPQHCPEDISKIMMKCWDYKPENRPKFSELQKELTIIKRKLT
Sequence of Ribosomal protein S6 kinase alpha-5 (Homo sapiens) (O75582 whole entry, looked up): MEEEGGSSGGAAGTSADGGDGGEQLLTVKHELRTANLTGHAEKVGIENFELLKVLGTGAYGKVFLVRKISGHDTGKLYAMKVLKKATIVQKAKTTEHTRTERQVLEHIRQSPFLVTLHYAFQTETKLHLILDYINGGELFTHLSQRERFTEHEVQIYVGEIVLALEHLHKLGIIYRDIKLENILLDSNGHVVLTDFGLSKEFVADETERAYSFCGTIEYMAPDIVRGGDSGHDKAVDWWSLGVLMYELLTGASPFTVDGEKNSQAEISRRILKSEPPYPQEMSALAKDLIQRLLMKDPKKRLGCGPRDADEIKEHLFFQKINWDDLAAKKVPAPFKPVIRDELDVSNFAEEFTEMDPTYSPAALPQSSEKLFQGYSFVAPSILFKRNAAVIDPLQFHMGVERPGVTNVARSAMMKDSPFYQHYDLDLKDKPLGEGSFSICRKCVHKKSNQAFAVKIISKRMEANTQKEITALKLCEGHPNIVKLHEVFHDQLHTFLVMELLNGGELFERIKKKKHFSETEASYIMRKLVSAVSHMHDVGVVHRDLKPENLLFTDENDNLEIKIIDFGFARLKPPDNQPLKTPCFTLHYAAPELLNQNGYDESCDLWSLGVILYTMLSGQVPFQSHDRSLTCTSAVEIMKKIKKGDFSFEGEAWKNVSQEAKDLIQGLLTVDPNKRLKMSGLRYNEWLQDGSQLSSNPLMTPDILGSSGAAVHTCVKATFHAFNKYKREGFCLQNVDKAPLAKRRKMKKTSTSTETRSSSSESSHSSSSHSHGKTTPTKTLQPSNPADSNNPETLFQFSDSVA
Sequence of Eukaryotic elongation factor 2 kinase (Homo sapiens) (O00418 whole entry, the tested form may be a part): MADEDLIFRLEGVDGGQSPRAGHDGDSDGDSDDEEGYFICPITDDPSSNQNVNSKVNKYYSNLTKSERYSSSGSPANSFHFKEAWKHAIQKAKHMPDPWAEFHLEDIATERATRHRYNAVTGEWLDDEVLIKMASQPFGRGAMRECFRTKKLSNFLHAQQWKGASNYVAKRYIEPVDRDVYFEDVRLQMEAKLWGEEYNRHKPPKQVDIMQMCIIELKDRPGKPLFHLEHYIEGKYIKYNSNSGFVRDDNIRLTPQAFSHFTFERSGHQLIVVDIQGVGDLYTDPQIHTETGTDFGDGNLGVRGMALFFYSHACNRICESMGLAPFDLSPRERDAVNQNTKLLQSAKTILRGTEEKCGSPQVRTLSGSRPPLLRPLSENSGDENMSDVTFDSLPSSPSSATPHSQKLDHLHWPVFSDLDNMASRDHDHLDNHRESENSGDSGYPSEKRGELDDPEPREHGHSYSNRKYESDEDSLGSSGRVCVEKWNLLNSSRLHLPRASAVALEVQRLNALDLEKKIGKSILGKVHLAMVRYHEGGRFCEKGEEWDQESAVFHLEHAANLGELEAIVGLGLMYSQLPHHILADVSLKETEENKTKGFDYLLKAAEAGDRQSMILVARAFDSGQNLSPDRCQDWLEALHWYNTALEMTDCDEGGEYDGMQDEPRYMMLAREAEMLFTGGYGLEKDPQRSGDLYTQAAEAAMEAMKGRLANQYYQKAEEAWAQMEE
Sequence of Dual specificity mitogen-activated protein kinase kinase 6 (Homo sapiens) (P52564 whole entry): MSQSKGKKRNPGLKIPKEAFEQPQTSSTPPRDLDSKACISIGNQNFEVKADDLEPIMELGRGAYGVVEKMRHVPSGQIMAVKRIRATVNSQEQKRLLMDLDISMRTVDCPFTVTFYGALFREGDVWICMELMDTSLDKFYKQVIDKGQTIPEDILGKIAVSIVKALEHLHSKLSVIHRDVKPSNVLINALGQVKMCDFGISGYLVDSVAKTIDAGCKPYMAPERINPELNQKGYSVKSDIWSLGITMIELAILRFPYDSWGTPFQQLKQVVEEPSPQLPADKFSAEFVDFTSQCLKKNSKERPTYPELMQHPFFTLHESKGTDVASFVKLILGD
Sequence of Calcium/calmodulin-dependent protein kinase type II subunit gamma (Homo sapiens) (Q13555 whole entry): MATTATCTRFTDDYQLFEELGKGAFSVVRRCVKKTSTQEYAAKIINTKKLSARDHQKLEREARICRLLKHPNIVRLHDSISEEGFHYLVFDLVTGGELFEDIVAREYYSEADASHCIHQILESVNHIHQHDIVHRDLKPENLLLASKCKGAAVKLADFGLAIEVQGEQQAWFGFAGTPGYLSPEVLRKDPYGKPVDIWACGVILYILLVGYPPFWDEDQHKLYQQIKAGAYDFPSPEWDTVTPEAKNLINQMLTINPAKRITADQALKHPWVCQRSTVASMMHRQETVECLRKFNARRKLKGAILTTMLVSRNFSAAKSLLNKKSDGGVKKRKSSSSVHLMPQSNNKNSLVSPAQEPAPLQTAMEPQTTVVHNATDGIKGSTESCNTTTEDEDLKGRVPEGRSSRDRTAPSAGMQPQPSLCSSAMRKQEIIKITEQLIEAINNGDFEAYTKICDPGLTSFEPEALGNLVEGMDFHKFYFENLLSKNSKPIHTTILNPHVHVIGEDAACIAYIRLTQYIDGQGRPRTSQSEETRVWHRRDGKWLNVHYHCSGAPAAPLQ

residual activity [1]: 110% | inhibition [2]: 12% | residual activity [5]: 108% | AUC at 528 h [6]: 3870 ng·h/mL | residual activity [7]: 91% | residual activity [8]: 95% | residual activity [10]: 108% | Cmax [11]: 776 ng/mL | residual activity [12]: 105% | residual activity [13]: 118% | residual activity [15]: 131% | residual activity (Homo sapiens [16]): 109% | residual activity [17]: 128% | residual activity (Homo sapiens [18]): 117% | residual activity [20]: 107% | residual activity [21]: 100% | residual activity [22]: 109%
Compound: C[C@@H]1CCc2ncc(F)cc2[C@H]2CCCN2c2ccn3ncc(c3n2)C(=O)N1 [SELITRECTINIB]
residual activity [3]: 120% | inhibition (NIH3T3 [4]): Active | inhibition (LC2): inactive | inhibition (SW1353): inactive | inhibition (MDA-MB-231): inactive | inhibition [9]: inactive | inhibition (D283 Med): inactive | inhibition (HMCB cell line): inactive | inhibition (T-24): inactive | inhibition (MIA PaCa-2): inactive | inhibition (SNU-16): inactive | inhibition (J82): inactive | IC50 [14]: ≤ 5 nM | Activity (NIH3T3 [19]): Active | inhibition (SK-N-DZ): inactive
